Test results reported in patent US12691101B2, “Compound and method for preventing or treating of respiratory diseases comprising the same as an active ingredient” (YONSEI UNIVERSITY, UNIVERSITY - INDUSTRY FOUNDATION (UIF), priority 2019, dated 2026).

Key:
SLC26A9 = molecular target: T1, SLC26A9 (Homo sapiens, UniProt Q7LBE3); assay: Cl^−/HCO3^− exchange in CHO-K1 cells expressing SLC26A9; type: cell-based
T1 construct: expressed in transfected cells; host or cells: CHO-K1
Procedure: (A) The inhibition of mouse pendrin (mPDS)-mediated Cl^−/I^− exchange activity by F56 was measured in CHO-K1 cells (mean±S.E., n=5). The indicated concentration of F56 was pretreated for 10 minutes. (B) Summary of dose-response for inhibition of the human pendrin (hPDS)-mediated (closed circle, FIG. (a), C) and mPDS-mediated (open circle) Cl^−/I^− exchange activity. (C-F) Representative traces of intracellular pH in CHO-K1 cells expressing SLC26A3, SLC26A6, SLC26A7 and SLC26A9 were shown. The application of Cl^− free solution induced intracellular alkalization by Cl^−/HCO3^− exchange. The indicated concentration of F56 was pretreated for 10 minutes. (G) the effect of F56 (100 μM) on the CFTR chloride channel activity was measured in FRT cells expressing human CFTR. The CFTR current was activated by 20 μM forskolin and was inhibited by 10 μM CFTRinh-172. (H) The effect of F56 (100 μM) on the AN01 chloride channel activity was measured in FRT cells expressing human AN01. Before 10 minutes prior to AN01 activation by 100 μM ATP, F56 was added. (Right) Peak current summary (mean±S.E., n=3). (I) The effect of F56 on the hERG (Kv11.1) potassium channel activity was measured in HEK293T cells expressing human Kv11.1 (mean±S.E., n=4). […] (J) The effect of F56 on the 5-HT2A channel activity was measured in FRT cells expressing human 5-HT2A (mean±S.E., n=4). […]

pendrin = assay: Protein expression measurement in IL-4-treated HNE cells, pendrin; type: cell-based, human; conditions: long-term treatment
Procedure: CHO-K1 and HNE cells were lysed with a cytolytic buffer (50 mM Tris-HCl, pH 7.4, 1% Nonidet P-40, 0.25% sodium deoxycholate, 150 mM NaCl, 1 mM EDTA, 1 mM Na3VO4, and protease inhibiting mixture). The total cell lysates were under centrifugation at 15,000×g for 10 minutes at 4° C. to remove cellular debris and the same amount (50 μg protein or 5 μg protein/lane) of supernatant protein was isolated on 4-12% Tris-glycine precast gel (KOMA BIOTECH, Seoul, Korea) and transferred to PVDF membrane (Millipore, Billerica, MA, USA). The membrane was blocked with 5% fat-free skim milk in TBS containing 0.1% Tween 20 (TBST) or 5% bovine serum albumin in TBS at a room temperature for 1 hour. Then, the membrane was cultured at 4° C. overnight with a primary antibody against pendrin (sc-50346; Santa Cruz Biotechnology, Santa Cruz, CA, USA), NF-κB p65 (4764S; Cell Signaling Technology, Danvers, MA, USA), p-NF-κB p65 (3033S; Cell Signaling Technology), IkBα (9242S; Cell Signaling Technology), p-IkBα (9141S; Cell Signaling Technology), β-actin (sc-47778; Santa Cruz Biotechnology), or AN01 (ab64085; Abeam). After washing with 0.05% Tween 20 (TBST) in PBS, the blot was additionally cultured with a secondary antibody (Cell Signaling Technology, Danvers, MA) at a room temperature for 60 minutes. […]

Serum T3 and T4 in mice = type: in vivo, mouse; conditions: 10 mg/kg/day for 1 week
Procedure: (§1) The negative effect of F56 was examined by i.p administering of F56 10 mg/kg to female balb/c mice every 24 hours for 7 days. In 24 hours after the last administration, the hearing of mice was measured and serum was obtained. According to the manufacturer's protocol, the total serum level of triiodothyronine (T3) or thyroxine (T4) using a mouse ELISA kit (Calbiotech, T3043T-100 or T4044T-100).

Duox1 and Duox2 mRNA = assay: Real-time PCR of Duox1 and Duox2 mRNA in IL-4-treated HNE cells; type: cell-based, human
Procedure: The total messenger RNA (mRNA) was extracted using TRIzol reagent (Invitrogen, Carlsbad, CA, USA), and was reverse-transcribed using a random hexamer primer, an oligo(dT) primer and SuperScript® III reverse transcriptase (Invitrogen). Quantitative real-time PCR was performed using StepOnePlus Real-Time PCR system (Applied Biosystems, Foster City, CA, USA) and Thunderbird SYBR qPCR mix (Tokyobo, Osaka, Japan). Thermal cycling conditions included the initial stage at 95° C. for 5 minutes, and subsequent 40 cycles at 95° C. for 10 seconds, at 55° C. for 20 seconds and at 72° C. for […].

[1] = Auditory brainstem response (ABR) hearing threshold in mice; type: in vivo, mouse; conditions: 10 mg/kg/day for 1 week
Procedure: as §1
The hearing level was measured in each mouse by measuring ABR threshold using an auditory-evoking potential workstation and BioSig software (Tucker-Davis Technologies, Alachua, FL, USA). The output from the speaker was calibrated using PCB 377C10 microphone (PCB Piezotronics, Inc. New York, NY, USA) and found to be within ±4 dB over the tested frequency range. After anesthetizing the mice, each ear was stimulated with an ear probe sealed inside the ear canal. The body temperature of the mice was maintained at 38° C. with an isothermal heating water-pad. The intensity of the click sound decreased from 70 dB SPL to 10 dB SPL with a 5-dB decrease. The mean value of ABR was calculated and the auditory threshold was defined as the lowest ABR response until wave I of ABR was no longer visually discernible.

T1 sequence (Q7LBE3 whole entry, species assumed): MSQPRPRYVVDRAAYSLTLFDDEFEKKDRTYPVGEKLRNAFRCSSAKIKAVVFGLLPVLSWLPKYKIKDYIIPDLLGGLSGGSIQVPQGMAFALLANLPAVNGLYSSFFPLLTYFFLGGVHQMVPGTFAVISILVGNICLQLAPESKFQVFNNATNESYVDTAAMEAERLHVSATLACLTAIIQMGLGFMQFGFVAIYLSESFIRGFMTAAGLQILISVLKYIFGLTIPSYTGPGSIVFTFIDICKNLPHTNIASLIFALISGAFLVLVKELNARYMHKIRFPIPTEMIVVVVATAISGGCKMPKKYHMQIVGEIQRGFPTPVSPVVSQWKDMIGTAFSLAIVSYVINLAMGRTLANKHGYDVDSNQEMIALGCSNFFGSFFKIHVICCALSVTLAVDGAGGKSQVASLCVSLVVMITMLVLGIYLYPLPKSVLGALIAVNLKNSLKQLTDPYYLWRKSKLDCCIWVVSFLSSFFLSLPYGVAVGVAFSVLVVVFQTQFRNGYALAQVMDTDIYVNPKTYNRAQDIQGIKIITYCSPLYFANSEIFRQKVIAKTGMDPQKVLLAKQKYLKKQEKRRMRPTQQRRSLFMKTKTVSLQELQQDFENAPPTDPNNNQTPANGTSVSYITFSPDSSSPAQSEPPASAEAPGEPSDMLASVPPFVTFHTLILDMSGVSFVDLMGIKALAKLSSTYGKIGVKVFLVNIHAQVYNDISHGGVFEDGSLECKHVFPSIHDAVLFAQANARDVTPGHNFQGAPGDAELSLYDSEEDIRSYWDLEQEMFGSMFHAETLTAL

effect on SLC26A9 Cl^−/HCO3^− exchange (SLC26A9): did not affect
T3 and T4 plasma level (Serum T3 and T4 in mice): not changed
hearing threshold [1]: not changed
SMILES: CC(C)(C)c1ccc(C2=NC(=Cc3cccs3)C(=O)O2)cc1 [F56, 2-(4-(tert-butyl)phenyl)-4-(thiophen-2-ylmethylene)oxazol-5(4H)-one]
pendrin protein expression level (pendrin): strongly reduced
mRNA expression of Duox1 or Duox2 (Duox1 and Duox2 mRNA): did not affect
